Where two headings read alike, the source gives them in different places. Blank lines part the entries; values can stand above or below the compound they belong to.
Experiments:
[1] = test system: in vitro expanded peripheral human T cells; assay: Determination of ROS generation (activation-induced oxidative signal, H2DCF-DA, FACS); assay type: cell-based; conditions: for oxidative signal generation (T cell activation-induced mitochondrial ROS) with respiratory chain inhibitors: 15 min pre-treatment, plate-bound anti-CD3 (30 μg/ml) or PMA (10 ng/ml) 1 h (FIG. 9A)
Protocol: (§1) T cell line Jurkat J16-145 cells, J16 sub-clone (2), were cultured in RPMI 1640 (+L-glutamine), 10% foetal calf serum (FCS). Gaussia luciferase NF-κB reporter J16-145 cells were cultured in IMDM, 10% FCS. Freshly isolated (“resting”) or phytohemagglutinin (PHA)-activated and 6-8 days in vitro expanded (“pre-activated”) peripheral human T cells were cultured at initial concentration of 2×10^6 cells/ml in RPMI 1640 (+L-glutamine), 10% FCS. For pre-activation-induced expansion, “resting” T cells were treated with 1 μg/ml PHA for 16 h, washed and subsequently cultured in the presence of 25 U/ml IL-2 for 6-8 days. These cells are referred to as “T cells” in the text, if not stated differently.
(§2) Cells were stained with H2DCF-DA (5 μM) for 30 min. Next, cells were divided and 1 h stimulated with either plate-bound anti-CD3 antibody (30 μg/ml) or PMA (10 ng/ml). Treatment was terminated by ice-cold PBS and ROS generation was determined by FACS analysis (Canto II, Becton Dickinson). ROS generation was quantified as the increase in mean fluorescence intensity (MFI), calculated according to the following formula: increase in MFI (%)=[(MFIstimulated−MFIunstimulated)/MFIunstimulated]×100 (3).

enolase (ENO) = assay: Enolase (ENO) reverse reaction activity; assay type: biochemical, human
Protocol: Enolase (ENO) forward reaction was measured as NADH oxidation in ETC buffer containing 1 mM 2-phosphoglycerate, 1 mM ADP, 0.5 mM NADH, 2 U/ml LDH, 2 U/ml PK. The reverse reaction was assayed in ETC buffer containing 1 mM phosphoenolpyruvate, 1 mM ATP, 0.5 mM NADH, 2 U/ml LDH, 2 U/ml PK.

[2] = test system: mitochondria-associated HK activity; assay: Respiration-coupled hexokinase (HK)-like activity in T cell mitochondria ("high g" fraction); assay type: biochemical, human
mitochondrial AK = assay: Adenylate kinase (AK) activity assay; assay type: biochemical; conditions: 5 μM
Protocol: AK activity was assayed as NADP reduction in ETC buffer containing 1 mM ADP, 1 mM glucose, 0.5 mM NADP, 1 U/mL HK and 0.05 U/ml glucose 6-phosphate dehydrogenase at pH 7.5 and 37° C.

[3] = test system: in vitro expanded peripheral human T cells; conditions: previous work (ref. 3); cited from earlier work
Jurkat T cells = assay: Determination of ROS generation (activation-induced oxidative signal, H2DCF-DA, FACS); assay type: cell-based, human; conditions: 30 min pre-incubation with DOG/pyruvate, compared to equimolar glucose (Glc)/pyruvate
Protocol: as §1
as §2, with “(3). […]” for “(3).”

T cells = assay: Glucose uptake (D-[3-3H] glucose); assay type: cell-based, human; conditions: after stimulation with anti-CD3 antibody or PMA
Protocol: Upon treatment, cells (1-2×10^7 cells) were washed and suspended in Krebs-Ringer buffer. Subsequently, cells were incubated with 1 μCi/ml D-[3-^3H] glucose for 10 min at 37° C. Afterwards, cells were washed twice with ice-cold Krebs-Ringer buffer and intracellular D-[3-^3H] glucose was detected using a scintillation counter (LS 6500 Liquid Scintillation Counter Beckman Coulter; Brea, Calif., USA).

[4] = test system: in vitro expanded T cells; assay: Oxygen electrode, mitochondrial respiratory rate; assay type: cell-based; conditions: intact human T cells, soluble anti-CD3 antibody or PMA
Protocol: Mitochondrial respiratory rate was measured according to a previously described protocol (7) using computer-supported high-resolution Oroboros 1 oxygraph system (Paar, Graz, Austria). In vitro expanded T cells (5-10×10^7 cells) were placed in each electrode chamber and activated with soluble anti-CD3 antibody (10 μg/m, cross-linked with GAM, 2 μg/ml) or PMA (10 ng/ml). The experimental set-up was as previously described (8). “Mitochondrial respiratory rate” was calculated by subtracting “Background oxygen consumption rate” (recorded with a reference electrode in a presence of 5 μM oligomycin) from “Total oxygen consumption rate” (as described in (8)).

ADPGK = target: T1, ADPGK (Homo sapiens, UniProt Q9BRR6); assay: ADP-dependent glucokinase (ADPGK) activity assay; assay type: biochemical; conditions: for ADPGK activity in mitochondria-enriched membrane fractions ("high g" fractions): human T cells or Jurkat T cells, 1 h stimulation
T1 construct: endogenous in cells; host or cells: in vitro expanded human T cells or Jurkat T cells; "high g" mitochondrial or "ER-enriched" fraction
T1 sequence (Q9BRR6 23-497): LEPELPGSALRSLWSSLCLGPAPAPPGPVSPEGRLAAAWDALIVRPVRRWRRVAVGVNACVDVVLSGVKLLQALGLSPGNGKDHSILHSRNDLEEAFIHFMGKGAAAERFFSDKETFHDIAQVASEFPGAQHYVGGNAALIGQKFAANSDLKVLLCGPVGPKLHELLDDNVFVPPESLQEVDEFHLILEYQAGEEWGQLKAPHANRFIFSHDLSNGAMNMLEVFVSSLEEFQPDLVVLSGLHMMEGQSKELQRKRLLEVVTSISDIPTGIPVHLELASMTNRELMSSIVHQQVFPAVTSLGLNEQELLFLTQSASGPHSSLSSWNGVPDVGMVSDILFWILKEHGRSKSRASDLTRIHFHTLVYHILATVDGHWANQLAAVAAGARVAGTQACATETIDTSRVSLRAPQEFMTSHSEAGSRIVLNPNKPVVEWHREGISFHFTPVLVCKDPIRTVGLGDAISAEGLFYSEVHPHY
Protocol: (§3) Cells were disrupted using a 27×½″ needle in ice-cold ETC buffer and the homogenates were centrifuged at 600×g, 4° C. for 10 min. For preparation of the “high g” mitochondrial (pellet) as well cytosolic (supernatant) fraction the 600×g supernatant was centrifuged at 11.000×g, 4° C. for 20 min. For preparation of the “mitochondria-enriched” fractions, the 600×g supernatant was centrifuged 10 min, 4° C. at 3,500×g (pellet). Subsequently, for preparation of the “ER-enriched fraction” the 3,500×g supernatant was centrifuged at 11.000×g, 4° C. for 20 min. The mouse heart muscle mitochondria were prepared according to the procedure for “mitochondria-enriched” fraction as described (5).
ADPGK activity was assayed as NADP reduction in ETC buffer containing 1 mM ADP, 1 mM glucose, 0.5 mM NADP, 5 μM diadenosine pentaphosphate, and 0.05 U/ml glucose 6-phosphate dehydrogenase at pH 6.0 and 37° C. or 42° C. Assay was essentially based on the one previously described for the recombinant mouse ADPGK protein (9).

GPD2 = GPD2 activity in mitochondrial fractions of T cells; assay type: biochemical, human
Protocol: as §3
Glycerol-3-phosphate-dehydrogenase (GPD2) activity was measured as cytochrome c reduction in ETC buffer containing 5 mM glycerol 3-phosphate, 2 mM NaCN, and 60 μM cytochrome c.

[5] = test system: in vitro expanded human T cells; assay: Ubiquinol/ubiquinone content determination (HPLC); assay type: cell-based; conditions: PMA (10 ng/ml) 1 h, extracts from snap-frozen activated T cells
Protocol: At least 5×10^7 in vitro expanded human T cells were treated with plate-bound anti-CD3 antibody (30 μg/ml) or PMA (10 ng/ml) for 1 h. Cells were washed, pelleted, snap-frozen in liquid nitrogen and placed on dry ice. Ubiquinol/-on extraction was performed by addition of ice-cold 200 μl hexan: isopropanol (2:1) and subsequent centrifugation (15.000 g) for 5 min at 0° C. Next, 150 μl of the supernatant was immediately injected and separated by RP-HPLC. HPLC separation and identification conditions were based on previously published methods (10, 11). […] Identification was based on UV/VIS-DAD absorption spectra and facilitated by redox response detected with volt-amperometric detector. Quantitation was performed based on UV-VIS chromatograms at wavelengths: 275 nm (ubiquinone) and 289 nm (ubiquinol). Selected qualitative and quantitative results of UV-VIS/DAD analysis were confirmed by HPLC-MS/ESI (Agilent; Santa Clara, Calif., USA).

[6] = test system: ETC complexes I, II and III; assay: Steady-state activity of ETC enzymatic complexes in digitonin-permeabilized T cells; assay type: biochemical, human; conditions: T cells pre-treated (20 min) with BIM, TCR triggering
Protocol: In vitro expanded T cells (at least 0.5×10^8) were snap-frozen in liquid nitrogen and subsequently incubated on ice in ETC buffer (20 mM Tris-HCl pH 7.4, 250 mM sucrose, 50 mM KCl, 5 mM MgCl2) with 0.015% digitonin for 30 min according to Chretien et al. (4) with minor modifications. Afterwards, cells were washed twice with ice-cold ETC buffer and subjected to assays.
Steady-state activity of ETC enzymatic complexes was determined as described (5, 6) using a computer-tunable spectrophotometer (Spectramax Plus Microplate Reader, Molecular Devices; Sunny Vale, Calif., USA) operating in the dual wavelength mode; samples were analyzed in temperature-controlled 96-well plates in a final volume of 300 μL. The addition of standard respiratory chain inhibitors was used to ascertain the specificity of the enzymatic assays. All enzymatic activities were normalized to protein concentration. For stimulated T cells ETC enzyme activities were measured after snap-freezing and digitonin-permeabilization (as described previously). To study electron flow from complex I or complex II to complex III digitonin-permeabilized cells or mitochondrial fractions were incubated with NADH or succinate and the reduction of cytochrome c in the presence of NaCN was measured.

Compound: antimycin
oxidative signal generation (T cell activation-induced mitochondrial ROS) with respiratory chain inhibitors [1]: increased

Compound: C=C(C)[C@H]1Cc2c(ccc3c2O[C@@H]2COc4cc(OC)c(OC)cc4[C@@H]2C3=O)O1 [rotenone]
oxidative signal generation (T cell activation-induced mitochondrial ROS) with respiratory chain inhibitors [1]: inhibition

Compound: CO/C(=C/C(N)=O)[C@H](C)[C@H](/C=C/c1csc(-c2csc([C@@H](C)/C=C/C=C/C(C)C)n2)n1)OC [myxothiazol]
oxidative signal generation (T cell activation-induced mitochondrial ROS) with respiratory chain inhibitors [1]: not

Compound: NaVO3
TCR-induced increase of reverse ENO activity (enolase (ENO)): abolished
reverse ENO activity (enolase (ENO)): reduced the activity but did not block it

Compound: CC[C@H]1/C=C/C=C/C[C@@H](C)[C@H](O)[C@@](C)(O)C(=O)[C@@H](C)[C@H](O)[C@@H](C)C(=O)[C@@H](C)[C@H](O)[C@@H](C)/C=C/C(=O)O[C@@H]2[C@H](C)[C@H](CC1)O[C@]1(CC[C@H](C)[C@H](C[C@@H](C)O)O1)[C@H]2C [oligomycin]
oxidative signal generation (T cell activation-induced mitochondrial ROS) with respiratory chain inhibitors [1]: not blocked

Compound: diadenosine pentaphosphate [Ap5A]
inhibition of TCR-induced HK-like activity ([2]; 5 μM, presence of ADP and succinate): up to 40%
activation-induced rise in HK-like activity ([2]; Ap5A 5 μM): unaffected
inhibition of mitochondrial AK (mitochondrial AK): 80-90%

Compound: O=C(CC(=O)C(F)(F)F)c1cccs1 [TTFA]
oxidative signal generation (T cell activation-induced mitochondrial ROS) with respiratory chain inhibitors [1]: moderate inhibition

Compound: CN(C)C(=N)N=C(N)N [metformin]
generation of the oxidative signal [3]: blocked
oxidative signal generation (T cell activation-induced mitochondrial ROS) with respiratory chain inhibitors [1]: inhibition

Compound: O=CC[C@@H](O)[C@H](O)[C@H](O)CO [DOG, 2-deoxy-glucose]
activation-induced ROS (Jurkat T cells): lower amounts
activation-induced ROS ([1]; expanded human T cells, 30 min pre-incubation with DOG/pyruvate, compared to equimolar glucose (Glc)/pyruvate): lower amounts

ADPGK activity in mitochondria-enriched membrane fractions ("high g" fractions) (ADPGK): enhanced
Compound: anti-CD3 antibody: Monoclonal mouse antibody (OKT3) against human CD3, agonistic, used for TCR triggering
cellular uptake of radioactively labeled glucose (T cells): rapidly rose
mitochondrial oxygen consumption [4]: significant inhibition

Compound: [N-]=[N+]=[N-].[Na+] [NaN3]
oxidative signal generation (T cell activation-induced mitochondrial ROS) with respiratory chain inhibitors [1]: not blocked

Compound: CCCCCCCCCCCCCC(=O)O[C@@H]1[C@@H](C)[C@@]2(O)[C@@H](C=C(CO)C[C@]3(O)C(=O)C(C)=C[C@@H]23)[C@@H]2C(C)(C)[C@]12OC(C)=O [PMA, phorbol 12-myristate 13-acetate]
cellular uptake of radioactively labeled glucose (T cells): rapidly rose
mitochondrial oxygen consumption [4]: significant inhibition
GPD2 activity (GPD2; mitochondria-enriched membrane fractions of pre-activated human T cells, PMA (10 ng/ml) 1 h): moderately up-regulated
ADPGK activity in mitochondria-enriched membrane fractions ("high g" fractions) (ADPGK): Comparable up-regulation
rise in the content of ubiquinol over ubiquinone [5]: 57%

Compound: [F-].[Na+] [NaF]
reverse ENO activity (enolase (ENO); T cells): blocked

T cell activation-induced enhancement of the ADPGK-like enzymatic activity (ADPGK; "high g" fractions, BIM pre-treatment (20 min)): completely abolished
Compound: CN(C)CCCn1cc(C2=C(c3c[nH]c4ccccc34)C(=O)NC2=O)c2ccccc21 [BIM, bis-indolyl-maleimidate I]
activation-induced changes of enzymatic activities of complexes I, II and III [6]: significantly blocked
TCR-induced GPD2 activation (GPD2; mitochondrial fractions of activated T cells, BIM pre-treatment): significantly blocked
TCR-induced mitochondrial ROS generation ([1]; 20 min pre-incubation, 1 h plate-bound anti-CD3 antibody (30 μg/ml)): inhibitor

Compound: N#CC(C#N)=NNc1cccc(Cl)c1 [CCCP]
sensitivity of the enhanced HK-like enzymatic activity ([2]; CCCP (0.125 μM), NaCN (10 mM)): insensitivity

From patent US20160113958A1, “MODULATORS OF ADP-DEPENDENT GLUCOKINASE (ADPGK) AND GLYCEROL-3-PHOSPHATE DEHYDROGENASE (GPD2) FOR THERAPY” (DEUTSCHES KREBSFORSCHUNGSZENTRUM STIFTUNG DES ÖFFENTLICHEN …, priority 2011, published 2016)
